Tested on: MOLT-4
Test: Growth inhibition of human MOLT4 cells assessed as cell growth at 10 uM incubated for 48 hrs by sulforhodamine B assay relative to control
Format: functional
Conditions: MOLT-4, 48 h, read-out: Activity

SMILES | growth at 10 µM [%]
O=C(Nc1cccc(-n2cc(-c3ccncc3)c(-c3cc(O)cc(Cl)c3)n2)c1)Nc1ccc(Cl)c(Cl)c1 | -27.1

Tested on: HOP-62
Test: Growth inhibition of human HOP62 cells assessed as cell growth at 10 uM incubated for 48 hrs by sulforhodamine B assay relative to control
Format: functional
Conditions: HOP-62, 48 h, read-out: Activity

SMILES | growth at 10 µM [%]
O=C(Nc1cccc(-n2cc(-c3ccncc3)c(-c3cc(O)cc(Cl)c3)n2)c1)Nc1ccc(Cl)c(Cl)c1 | -44.2

Tested on: NCI-H226
Test: Growth inhibition of human NCI-H226 cells assessed as cell growth at 10 uM incubated for 48 hrs by sulforhodamine B assay relative to control
Format: functional
Conditions: NCI-H226, 48 h, read-out: Activity

SMILES | growth at 10 µM [%]
O=C(Nc1cccc(-n2cc(-c3ccncc3)c(-c3cc(O)cc(Cl)c3)n2)c1)Nc1ccc(Cl)c(Cl)c1 | 14.5

Tested on: NCI-H460
Test: Growth inhibition of human NCI-H460 cells assessed as cell growth at 10 uM incubated for 48 hrs by sulforhodamine B assay relative to control
Format: functional
Conditions: NCI-H460, 48 h, read-out: Activity

SMILES | growth at 10 µM [%]
O=C(Nc1cccc(-n2cc(-c3ccncc3)c(-c3cc(O)cc(Cl)c3)n2)c1)Nc1ccc(Cl)c(Cl)c1 | 0.21

Tested on: HCT-116
Test: Growth inhibition of human HCT116 cells assessed as cell growth at 10 uM incubated for 48 hrs by sulforhodamine B assay relative to control
Format: functional
Conditions: HCT-116, 48 h, read-out: Activity

SMILES | growth at 10 µM [%]
O=C(Nc1cccc(-n2cc(-c3ccncc3)c(-c3cc(O)cc(Cl)c3)n2)c1)Nc1ccc(Cl)c(Cl)c1 | -57.3

Tested on: LOX IMVI
Test: Growth inhibition of human LOXIMVI cells assessed as cell growth at 10 uM incubated for 48 hrs by sulforhodamine B assay relative to control
Format: functional
Conditions: read-out: Activity

SMILES | growth at 10 µM [%]
O=C(Nc1cccc(-n2cc(-c3ccncc3)c(-c3cc(O)cc(Cl)c3)n2)c1)Nc1ccc(Cl)c(Cl)c1 | -84.7

Tested on: MDA-MB-435
Test: Growth inhibition of human MDA-MB-435 cells assessed as cell growth at 10 uM incubated for 48 hrs by sulforhodamine B assay relative to control
Format: functional
Conditions: MDA-MB-435, 48 h, read-out: Activity

SMILES | growth at 10 µM [%]
O=C(Nc1cccc(-n2cc(-c3ccncc3)c(-c3cc(O)cc(Cl)c3)n2)c1)Nc1ccc(Cl)c(Cl)c1 | -33.3

Tested on: UACC-257
Test: Growth inhibition of human UACC257 cells assessed as cell growth at 10 uM incubated for 48 hrs by sulforhodamine B assay relative to control
Format: functional
Conditions: UACC-257, 48 h, read-out: Activity

SMILES | growth at 10 µM [%]
O=C(Nc1cccc(-n2cc(-c3ccncc3)c(-c3cc(O)cc(Cl)c3)n2)c1)Nc1ccc(Cl)c(Cl)c1 | -70.7

Tested on: UACC-62
Test: Growth inhibition of human UACC62 cells assessed as cell growth at 10 uM incubated for 48 hrs by sulforhodamine B assay relative to control
Format: functional
Conditions: UACC-62, 48 h, read-out: Activity

SMILES | growth at 10 µM [%]
O=C(Nc1cccc(-n2cc(-c3ccncc3)c(-c3cc(O)cc(Cl)c3)n2)c1)Nc1ccc(Cl)c(Cl)c1 | -61.8

Tested on: IGROV-1
Test: Growth inhibition of human IGROV1 cells assessed as cell growth at 10 uM incubated for 48 hrs by sulforhodamine B assay relative to control
Format: functional
Conditions: IGROV-1, 48 h, read-out: Activity

SMILES | growth at 10 µM [%]
O=C(Nc1cccc(-n2cc(-c3ccncc3)c(-c3cc(O)cc(Cl)c3)n2)c1)Nc1ccc(Cl)c(Cl)c1 | 26

Tested on: OVCAR-3
Test: Growth inhibition of human OVCAR3 cells assessed as cell growth at 10 uM incubated for 48 hrs by sulforhodamine B assay relative to control
Format: functional
Conditions: OVCAR-3, 48 h, read-out: Activity

SMILES | growth at 10 µM [%]
O=C(Nc1cccc(-n2cc(-c3ccncc3)c(-c3cc(O)cc(Cl)c3)n2)c1)Nc1ccc(Cl)c(Cl)c1 | -47.4

Tested on: NCI/ADR-RES
Test: Growth inhibition of human NCI/ADR-RES cells assessed as cell growth at 10 uM incubated for 48 hrs by sulforhodamine B assay relative to control
Format: functional
Conditions: read-out: Activity

SMILES | growth at 10 µM [%]
O=C(Nc1cccc(-n2cc(-c3ccncc3)c(-c3cc(O)cc(Cl)c3)n2)c1)Nc1ccc(Cl)c(Cl)c1 | 12.8

Tested on: SK-OV-3
Test: Growth inhibition of human SKOV3 cells assessed as cell growth at 10 uM incubated for 48 hrs by sulforhodamine B assay relative to control
Format: functional
Conditions: SK-OV-3, 48 h, read-out: Activity

SMILES | growth at 10 µM [%]
O=C(Nc1cccc(-n2cc(-c3ccncc3)c(-c3cc(O)cc(Cl)c3)n2)c1)Nc1ccc(Cl)c(Cl)c1 | 13.2

Tested on: 786-0
Test: Growth inhibition of human 786-0 cells assessed as cell growth at 10 uM incubated for 48 hrs by sulforhodamine B assay relative to control
Format: functional
Conditions: 786-0, 48 h, read-out: Activity

SMILES | growth at 10 µM [%]
O=C(Nc1cccc(-n2cc(-c3ccncc3)c(-c3cc(O)cc(Cl)c3)n2)c1)Nc1ccc(Cl)c(Cl)c1 | -72.1

Tested on: ACHN
Test: Growth inhibition of human ACHN cells assessed as cell growth at 10 uM incubated for 48 hrs by sulforhodamine B assay relative to control
Format: functional
Conditions: read-out: Activity

SMILES | growth at 10 µM [%]
O=C(Nc1cccc(-n2cc(-c3ccncc3)c(-c3cc(O)cc(Cl)c3)n2)c1)Nc1ccc(Cl)c(Cl)c1 | 6.85

Tested on: CAKI-1
Test: Growth inhibition of human Caki1 cells assessed as cell growth at 10 uM incubated for 48 hrs by sulforhodamine B assay relative to control
Format: functional
Conditions: CAKI-1, 48 h, read-out: Activity

SMILES | growth at 10 µM [%]
O=C(Nc1cccc(-n2cc(-c3ccncc3)c(-c3cc(O)cc(Cl)c3)n2)c1)Nc1ccc(Cl)c(Cl)c1 | 5.31

Tested on: RXF 393
Test: Growth inhibition of human RXF393 cells assessed as cell growth at 10 uM incubated for 48 hrs by sulforhodamine B assay relative to control
Format: functional
Conditions: RXF 393, 48 h, read-out: Activity

SMILES | growth at 10 µM [%]
O=C(Nc1cccc(-n2cc(-c3ccncc3)c(-c3cc(O)cc(Cl)c3)n2)c1)Nc1ccc(Cl)c(Cl)c1 | -70.3

Tested on: SN12C
Test: Growth inhibition of human SN12C cells assessed as cell growth at 10 uM incubated for 48 hrs by sulforhodamine B assay relative to control
Format: functional
Conditions: read-out: Activity

SMILES | growth at 10 µM [%]
O=C(Nc1cccc(-n2cc(-c3ccncc3)c(-c3cc(O)cc(Cl)c3)n2)c1)Nc1ccc(Cl)c(Cl)c1 | 14.9

Tested on: UO-31
Test: Growth inhibition of human UO31 cells assessed as cell growth at 10 uM incubated for 48 hrs by sulforhodamine B assay relative to control
Format: functional
Conditions: UO-31, 48 h, read-out: Activity

SMILES | growth at 10 µM [%]
O=C(Nc1cccc(-n2cc(-c3ccncc3)c(-c3cc(O)cc(Cl)c3)n2)c1)Nc1ccc(Cl)c(Cl)c1 | -41.2

Tested on: DU-145
Test: Growth inhibition of human DU145 cells assessed as cell growth at 10 uM incubated for 48 hrs by sulforhodamine B assay relative to control
Format: functional
Conditions: DU-145, 48 h, read-out: Activity

SMILES | growth at 10 µM [%]
O=C(Nc1cccc(-n2cc(-c3ccncc3)c(-c3cc(O)cc(Cl)c3)n2)c1)Nc1ccc(Cl)c(Cl)c1 | -15.1

Tested on: MDA-MB-468
Test: Growth inhibition of human MDA-MB-468 cells assessed as cell growth at 10 uM incubated for 48 hrs by sulforhodamine B assay relative to control
Format: functional
Conditions: MDA-MB-468, 48 h, read-out: Activity

SMILES | growth at 10 µM [%]
O=C(Nc1cccc(-n2cc(-c3ccncc3)c(-c3cc(O)cc(Cl)c3)n2)c1)Nc1ccc(Cl)c(Cl)c1 | -1.88

Tested on: NCI/ADR-RES
Test: Growth inhibition of human NCI/ADR-RES cells incubated for 48 hrs by sulforhodamine B assay
Format: functional, cell-based
Conditions: read-out: GI50

SMILES | GI50 [µM]
O=C(Nc1cccc(-n2cc(-c3ccncc3)c(-c3cc(O)cc(Cl)c3)n2)c1)Nc1ccc(Cl)c(Cl)c1 | 3.21

Same assay, conditions: read-out: LC50 (the source's name)

SMILES | CC50 [µM]
O=C(Nc1cccc(-n2cc(-c3ccncc3)c(-c3cc(O)cc(Cl)c3)n2)c1)Nc1ccc(Cl)c(Cl)c1 | > 100

Same assay, conditions: read-out: TGI

SMILES | TGI [µM]
O=C(Nc1cccc(-n2cc(-c3ccncc3)c(-c3cc(O)cc(Cl)c3)n2)c1)Nc1ccc(Cl)c(Cl)c1 | > 100

Same assay, conditions: read-out: pGI50 (converted)

SMILES | GI50 [µM]
O=C(Nc1cccc(-n2cc(-c3ccncc3)c(-c3cc(O)cc(Cl)c3)n2)c1)Nc1ccc(Cl)c(Cl)c1 | 3.24

Same assay, conditions: read-out: pLC50 (the source's name) (converted)

SMILES | CC50 [µM]
O=C(Nc1cccc(-n2cc(-c3ccncc3)c(-c3cc(O)cc(Cl)c3)n2)c1)Nc1ccc(Cl)c(Cl)c1 | > 100

Same assay, conditions: read-out: pTGI (converted)

SMILES | TGI [µM]
O=C(Nc1cccc(-n2cc(-c3ccncc3)c(-c3cc(O)cc(Cl)c3)n2)c1)Nc1ccc(Cl)c(Cl)c1 | > 100

Tested on: LOX IMVI
Test: Growth inhibition of human LOXIMVI cells assessed as cell growth at 0.01 uM incubated for 48 hrs by sulforhodamine B assay relative to control
Format: functional
Conditions: read-out: Activity

SMILES | growth at 0.01 µM [%]
O=C(Nc1cccc(-n2cc(-c3ccncc3)c(-c3cc(O)cc(Cl)c3)n2)c1)Nc1ccc(Cl)c(Cl)c1 | 106

Tested on: MOLT-4
Test: Growth inhibition of human MOLT4 cells assessed as cell growth at 0.1 uM incubated for 48 hrs by sulforhodamine B assay relative to control
Format: functional
Conditions: MOLT-4, 48 h, read-out: Activity

SMILES | growth at 0.1 µM [%]
O=C(Nc1cccc(-n2cc(-c3ccncc3)c(-c3cc(O)cc(Cl)c3)n2)c1)Nc1ccc(Cl)c(Cl)c1 | 94

Tested on: SF-295
Test: Growth inhibition of human SF295 cells assessed as cell growth at 0.1 uM incubated for 48 hrs by sulforhodamine B assay relative to control
Format: functional
Conditions: SF-295, 48 h, read-out: Activity

SMILES | growth at 0.1 µM [%]
O=C(Nc1cccc(-n2cc(-c3ccncc3)c(-c3cc(O)cc(Cl)c3)n2)c1)Nc1ccc(Cl)c(Cl)c1 | 87

Tested on: SK-MEL-5
Test: Growth inhibition of human SK-MEL-5 cells assessed as cell growth at 0.1 uM incubated for 48 hrs by sulforhodamine B assay relative to control
Format: functional
Conditions: SK-MEL-5, 48 h, read-out: Activity

SMILES | growth at 0.1 µM [%]
O=C(Nc1cccc(-n2cc(-c3ccncc3)c(-c3cc(O)cc(Cl)c3)n2)c1)Nc1ccc(Cl)c(Cl)c1 | 92

Tested on: PC-3
Test: Growth inhibition of human PC3 cells assessed as cell growth at 0.1 uM incubated for 48 hrs by sulforhodamine B assay relative to control
Format: functional
Conditions: PC-3, 48 h, read-out: Activity

SMILES | growth at 0.1 µM [%]
O=C(Nc1cccc(-n2cc(-c3ccncc3)c(-c3cc(O)cc(Cl)c3)n2)c1)Nc1ccc(Cl)c(Cl)c1 | 90

Tested on: SK-MEL-5
Test: Growth inhibition of human SK-MEL-5 cells assessed as cell growth at 1 uM incubated for 48 hrs by sulforhodamine B assay relative to control
Format: functional
Conditions: SK-MEL-5, 48 h, read-out: Activity

SMILES | growth at 1 µM [%]
O=C(Nc1cccc(-n2cc(-c3ccncc3)c(-c3cc(O)cc(Cl)c3)n2)c1)Nc1ccc(Cl)c(Cl)c1 | 86

Tested on: OVCAR-3
Test: Growth inhibition of human OVCAR3 cells assessed as cell growth at 1 uM incubated for 48 hrs by sulforhodamine B assay relative to control
Format: functional
Conditions: OVCAR-3, 48 h, read-out: Activity

SMILES | growth at 1 µM [%]
O=C(Nc1cccc(-n2cc(-c3ccncc3)c(-c3cc(O)cc(Cl)c3)n2)c1)Nc1ccc(Cl)c(Cl)c1 | 85

Tested on: OVCAR-5
Test: Growth inhibition of human OVCAR5 cells assessed as cell growth at 1 uM incubated for 48 hrs by sulforhodamine B assay relative to control
Format: functional
Conditions: OVCAR-5, 48 h, read-out: Activity

SMILES | growth at 1 µM [%]
O=C(Nc1cccc(-n2cc(-c3ccncc3)c(-c3cc(O)cc(Cl)c3)n2)c1)Nc1ccc(Cl)c(Cl)c1 | 56

Tested on: A549
Test: Growth inhibition of human A549/ATCC cells assessed as cell growth at 100 uM incubated for 48 hrs by sulforhodamine B assay relative to control
Format: functional
Conditions: A549, 48 h, read-out: Activity

SMILES | growth at 100 µM [%]
O=C(Nc1cccc(-n2cc(-c3ccncc3)c(-c3cc(O)cc(Cl)c3)n2)c1)Nc1ccc(Cl)c(Cl)c1 | -32

Tested on: HT-29
Test: Growth inhibition of human HT-29 cells assessed as cell growth at 100 uM incubated for 48 hrs by sulforhodamine B assay relative to control
Format: functional
Conditions: HT-29, 48 h, read-out: Activity

SMILES | growth at 100 µM [%]
O=C(Nc1cccc(-n2cc(-c3ccncc3)c(-c3cc(O)cc(Cl)c3)n2)c1)Nc1ccc(Cl)c(Cl)c1 | -70

Tested on: DU-145
Test: Growth inhibition of human DU145 cells assessed as cell growth at 100 uM incubated for 48 hrs by sulforhodamine B assay relative to control
Format: functional
Conditions: DU-145, 48 h, read-out: Activity

SMILES | growth at 100 µM [%]
O=C(Nc1cccc(-n2cc(-c3ccncc3)c(-c3cc(O)cc(Cl)c3)n2)c1)Nc1ccc(Cl)c(Cl)c1 | -31
